This is an account of results in patent US20240166610A1, “SUBSTITUTED PYRIDAZINE PHENOL DERIVATIVES” (MEDSHINE DISCOVERY INC., priority 2021, published 2024).

Molecules are shown by their SMILES. Counter-ions that a name gives are not always drawn.

Data set [1] can be described thus: In vivo pharmacokinetic evaluation in CD-1 mice. The following applies: male, mouse, plasma; for half-life: IV, read-out: Half-life T1/2 (IV) (converted); for clearance: read-out: Clearance rate CL; for Vd: read-out: Tissue distribution Vdss; for AUC(0-t): PO, read-out: Area under drug-time curve AUC0-last PO; for bioavailability: read-out: Bioavailability F; for Cmax: read-out: Peak concentration Cmax. The protocol: Experimental Example 2: In Vivo Pharmacokinetic Evaluation of Compounds in CD-1 Mice
Experimental purpose: To test the in vivo pharmacokinetics of the compounds in CD-1 mice
CD-1 mice (male, 7 to 9 weeks old)
The rodent pharmacokinetic characteristics after intravenous injection and oral administration of the compounds were tested using a standard protocol. The candidate compound was prepared as a clear solution during the experiment and given to mice for single intravenous injection and oral administration. The vehicle for intravenous injection and oral administration was a mixed vehicle composed of 5% dimethyl sulfoxide and 95% 5% solutol. Four male CD-1 mice were used in this project. Two mice were administered intravenously (IV), and plasma samples were collected at 0 hours (before administration) and 0.0833, 0.25, 0.5, 1, 2, 4, 8, and 24 hours after administration. The other two mice were administered orally by gavage (PO), and plasma samples were collected at 0 hours (before administration) and 0.25, 0.5, 1, 2, 4, 8, and 24 hours after administration. The plasma concentration was quantitatively analyzed by LC-MS/MS analysis method, and the pharmacokinetic parameters were calculated, such as peak concentration (Cmax), clearance rate (CL), half-life (T1/2), […] (Vdss), area under drug-time curve (AUC0-last), bioavailability (F).

In data set [2] the target is T1, hERG potassium ion channel (Homo sapiens, UniProt Q12809).
T1 construct: expressed in transfected cells; host or cells: CHO (CHO-hERG cell line)
The data set can be described thus: Inhibition test on hERG potassium ion channel (automated patch clamp, CHO-hERG cells). The class given is cell-based. Conditions: Qpatch, highest test concentration 40.00 μM. As to the method:
Experimental Example 4: Inhibition Test of Compounds on hERG Potassium Ion Channel
Experimental purpose: To detect the effect of the compounds to be tested on the hERG potassium channel by an automated patch clamp method.
1.1 CHO-hERG cells were cultured in a 175 cm^2 culture flask. When the cell density reached 60 to 80%, the culture medium was removed, and the cells were washed once with 7 mL of PBS (phosphate buffered saline), and then digested with 3 mL of digestion solution.
1.2 After the digestion was completed, 7 mL of culture medium was added to neutralize, then the mixture was centrifuged, and the supernatant was aspirated, and then 5 mL of culture medium was added to re-suspend, ensuring 2 to 5×10^6/mL of cell density.
The process of single cell high impedance sealing and whole cell mode formation were all automatically completed by Qpatch instrument, after obtaining the whole cell recording mode, the cells were clamped at −80 mV, before giving a 5-second +40 mV depolarization stimulus, a 50 millisecond −50 mV prevoltage was given first, and then repolarized to −50 mV for 5 seconds, then returned to −80 mV This voltage stimulation was applied every 15 seconds and after recording for 2 minutes, extracellular fluid was recordings for 5 minutes, and then the administration process was started. The compound concentration was given from the lowest test concentration, each test concentration was given for 2.5 minutes, and 3 μM of Cisapride as the positive control compound was given after all concentrations were continuously given. At least 3 cells (n≥3) were tested at each concentration.
4.1 The mother solution of the compound was diluted with DMSO, and 10 μL of mother solution of the compound was added to 20 μL of DMSO solution, and was 3-fold diluted continuously to 6 DMSO concentrations.
4.2 4 μL of compounds with 6 DMSO concentrations were added to 396 μL of extracellular fluid, 100-fold diluted to 6 intermediate concentrations, and then 80 μL of the compounds with 6 intermediate concentrations were added to 320 μL of extracellular fluid, 5-fold diluted to the final concentration to be tested.
4.3 The highest test concentration was 40.00 μM, in a total of 6 concentrations of 40.00, 13.33, 4.44, 1.48, 0.49, and 0.16 μM respectively.
4.4 The content of DMSO in the final test concentration was not more than 0.2%, and this concentration of DMSO had no effect on hERG potassium channel.
4.5 The whole dilution process of compound preparation was completed by Bravo instrument.
The experimental data were analyzed by GraphPad Prism 5.0 software.
For orientation: Block of hERG is tested as a sign of cardiac risk.

A further data set has as its target T2, NLRP3 (Homo sapiens, UniProt Q96P20).
T2 construct: This experiment utilized the human-derived monocyte cell line THP1; endogenous in cells; host or cells: THP-1 (human monocyte line, PMA-differentiated into macrophages)
The data set can be described thus: Detecting IC50 of NLRP3 inhibitor by using THP-1 cells (IL-1β secretion, CBA). The following applies: PMA/LPS/ATP, IL-1β in supernatant. Format: cell-based. The text has this:
1. Experimental principle: This experiment utilized the human-derived monocyte cell line THP1 to investigate the inhibitory activity (IC50) of NLRP3 inhibitor on cellular IL-1β secretion. PMA (12-O-tetradecanoylphorbol-13-acetate) was used to differentiate the monocyte cell line THP1 into mature macrophages, which were then stimulated using LPS (lipopolysaccharide), an agonist of the Toll-like receptor TLR4, to activate the transcriptional activity of the inflammasome NLRP3 and the expression of pro-IL-1β, a precursor of IL-1β. At this time, the inhibitor of NLRP3 was added, and then ATP (adenosine triphosphate) was added to further mature and activate NLRP3, and activate downstream caspase-1. Activated caspase-1 may enzymatically process pro-IL-1β into mature IL-1β that can be secreted.
(1) The density of THP1 cells was adjusted to 5×10^5 cells/mL, then PMA was added, and the final concentration was adjusted to 100 ng/mL. The cells were inoculated 200 μL/well into a 96-well flat-bottom plate, stimulated overnight (<16 hours if possible) at 37° C. and 5% CO2.
(2) The supernatant was discarded the next day, and then the cells were carefully washed twice with Dulbecco's phosphate-buffered saline (200 μL/time).
(3) The cells were stimulated with LPS at a final concentration of 100 ng/mL, added to a 96-well plate (200 μL/well), and cultured at 37° C. and 5% CO2 for 3 hours.
The cells were incubated for 1 hour in a 37° C., 5% CO2 incubator.
(5) ATP was added to each well with a final concentration of 5 mM, and cultured overnight (>18 hours) at 37° C. and 5% CO2.
(6) On the third day, 5 μL of the supernatant was taken, diluted 10-fold, and the content of IL-1β in the supernatant was detected by cytometric bead array (CBA).

A short description of data set [3]: In vivo pharmacokinetic evaluation in SD rats. Conditions: male, rat, plasma, dose IV/PO 1/2 mg/kg; for half-life / clearance / Vd: 1 mg/kg; for half-life: IV, read-out: Half-life T1/2 (IV) (converted); for clearance: read-out: Clearance rate CL; for Vd: read-out: Tissue distribution Vdss; for AUC(0-t): PO, read-out: Area under drug-time curve AUC0-last PO; for bioavailability: read-out: Bioavailability F; for Cmax: read-out: Peak concentration Cmax. The protocol:
Experimental Example 3: In Vivo Pharmacokinetic Evaluation of Compounds in SD Rats
Experimental Purpose: To Test the In Vivo Pharmacokinetics of the Compounds in SD Rats
The rodent pharmacokinetic characteristics after intravenous injection and oral administration of the compounds were tested using a standard protocol. The candidate compound was prepared as a clear solution during the experiment and given to SD rats for single intravenous injection and oral administration. The vehicle for intravenous injection and oral administration was a mixed vehicle composed of 5% dimethyl sulfoxide and 95% 5% solutol. Four male SD rats were used in this project. Two SD rats were administered intravenously, and plasma samples were collected at 0.083, 0.25, 0.5, 1, 2, 4, 8, and 24 hours after administration. The other two SD rats were administered orally by gavage, and plasma samples were collected at 0.25, 0.5, 1, 2, 4, 8, and 24 hours after administration. The plasma concentration was quantitatively analyzed by LC-MS/MS analysis method, and the pharmacokinetic parameters were calculated, such as peak concentration (Cmaz), clearance rate (CL), half-life (T1/2), […] (Vdss), area under drug-time curve (AUC0-last), bioavailability (F).

T2 sequence (Q96P20 whole entry): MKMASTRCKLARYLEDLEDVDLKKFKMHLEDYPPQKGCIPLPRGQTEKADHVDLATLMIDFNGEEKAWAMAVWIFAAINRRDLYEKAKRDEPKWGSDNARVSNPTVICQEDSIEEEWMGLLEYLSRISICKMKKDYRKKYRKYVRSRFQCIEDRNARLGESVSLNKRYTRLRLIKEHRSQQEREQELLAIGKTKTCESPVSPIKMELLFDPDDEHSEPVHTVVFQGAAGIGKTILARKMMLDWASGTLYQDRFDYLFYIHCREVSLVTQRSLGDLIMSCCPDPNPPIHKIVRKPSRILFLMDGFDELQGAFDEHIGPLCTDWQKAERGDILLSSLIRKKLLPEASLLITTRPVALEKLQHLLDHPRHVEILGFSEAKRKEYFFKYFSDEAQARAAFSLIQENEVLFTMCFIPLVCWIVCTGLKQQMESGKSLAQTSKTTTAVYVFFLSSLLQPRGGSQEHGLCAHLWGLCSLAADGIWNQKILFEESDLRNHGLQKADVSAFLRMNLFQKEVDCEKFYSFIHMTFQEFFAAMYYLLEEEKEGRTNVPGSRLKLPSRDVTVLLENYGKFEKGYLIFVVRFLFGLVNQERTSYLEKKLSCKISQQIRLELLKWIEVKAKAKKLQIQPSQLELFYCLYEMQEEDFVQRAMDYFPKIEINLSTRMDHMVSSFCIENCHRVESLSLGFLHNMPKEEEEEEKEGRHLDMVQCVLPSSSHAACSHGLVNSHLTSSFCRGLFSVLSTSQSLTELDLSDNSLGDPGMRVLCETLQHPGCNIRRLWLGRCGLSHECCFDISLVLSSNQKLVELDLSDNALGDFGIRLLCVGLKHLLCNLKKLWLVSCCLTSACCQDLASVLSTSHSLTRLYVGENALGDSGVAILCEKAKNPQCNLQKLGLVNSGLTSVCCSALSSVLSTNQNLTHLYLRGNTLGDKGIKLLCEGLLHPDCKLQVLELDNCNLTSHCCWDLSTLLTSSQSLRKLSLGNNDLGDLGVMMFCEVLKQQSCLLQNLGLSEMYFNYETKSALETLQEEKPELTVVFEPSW
T1 sequence (Q12809 whole entry): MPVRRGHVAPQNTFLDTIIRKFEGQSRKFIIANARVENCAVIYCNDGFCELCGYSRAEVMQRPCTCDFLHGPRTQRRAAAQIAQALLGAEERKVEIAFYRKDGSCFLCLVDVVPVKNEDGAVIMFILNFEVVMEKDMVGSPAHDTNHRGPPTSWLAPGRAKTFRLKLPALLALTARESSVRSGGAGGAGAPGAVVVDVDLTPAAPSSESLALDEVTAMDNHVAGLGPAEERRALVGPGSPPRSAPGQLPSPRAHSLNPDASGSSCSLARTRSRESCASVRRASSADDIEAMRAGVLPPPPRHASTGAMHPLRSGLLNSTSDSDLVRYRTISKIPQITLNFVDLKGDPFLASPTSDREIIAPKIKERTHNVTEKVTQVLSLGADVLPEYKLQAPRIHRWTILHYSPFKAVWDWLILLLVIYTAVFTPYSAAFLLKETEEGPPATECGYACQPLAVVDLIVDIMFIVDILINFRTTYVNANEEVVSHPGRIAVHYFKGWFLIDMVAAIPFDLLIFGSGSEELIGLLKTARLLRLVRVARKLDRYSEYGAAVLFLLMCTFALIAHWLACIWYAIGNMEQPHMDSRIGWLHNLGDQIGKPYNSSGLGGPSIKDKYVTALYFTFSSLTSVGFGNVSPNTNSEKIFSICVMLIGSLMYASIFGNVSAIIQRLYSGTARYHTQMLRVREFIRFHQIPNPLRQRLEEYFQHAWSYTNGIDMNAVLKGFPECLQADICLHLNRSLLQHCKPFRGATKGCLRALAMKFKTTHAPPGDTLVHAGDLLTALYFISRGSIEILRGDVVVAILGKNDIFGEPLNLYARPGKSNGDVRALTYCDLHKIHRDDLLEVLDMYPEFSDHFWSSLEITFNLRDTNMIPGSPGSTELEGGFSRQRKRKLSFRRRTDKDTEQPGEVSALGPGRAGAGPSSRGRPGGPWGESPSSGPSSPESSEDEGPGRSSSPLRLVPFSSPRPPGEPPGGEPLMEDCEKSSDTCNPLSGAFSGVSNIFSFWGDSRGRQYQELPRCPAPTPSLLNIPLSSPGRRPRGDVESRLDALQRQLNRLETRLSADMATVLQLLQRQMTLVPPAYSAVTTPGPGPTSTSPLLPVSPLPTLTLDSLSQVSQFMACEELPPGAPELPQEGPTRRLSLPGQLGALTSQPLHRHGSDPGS

`Cc1cc(N[C@@H]2CCCN(C3COC3)C2)nnc1-c1ccc(C2CC2)cc1O` [Compound 22]: in data set [1] (1 mg/kg, dose IV/PO 1/2 mg/kg), the half-life was 67.8 min, the clearance was 9.56 mL/min/kg and the Vd amounted to 0.718 L/kg. In data set [1] (dose IV/PO 1/2 mg/kg), the AUC(0-t) was determined as 5.33 µM·h; the bioavailability (as a rule, the share of a dose that reaches the circulation, judged against a reference dose that is usually intravenous) was 62.4%; the Cmax stood at 3.22 µM. The half-maximal inhibitory concentration (IC50) (in general, the midpoint of a concentration-inhibition curve) in data set [2] is more than 40 µM. In addition, the IC50 at NLRP3 is 9.2 nM.
For the compound `Cc1cc(N[C@@H]2CCCN(C)C2)nnc1-c1ccc2sccc2c1O` [Hydrochloride of compound 20], in data set [1] (2 mg/kg, dose IV/PO 2/10 mg/kg), the half-life was 196 min, the clearance was found to be 28.7 mL/min/kg and the Vd came out at 7.03 L/kg. Besides, in data set [1] (dose IV/PO 2/10 mg/kg), the AUC(0-t) was 16 µM·h, the bioavailability amounted to 96.5% and the Cmax was found to be 4.29 µM. This compound gave a concentration for half-maximal inhibition (IC50) in data set [2] of 10.3 µM. In data set [3], the half-life was 109 min, the clearance was found to be 48.5 mL/min/kg, the Vd was 6.79 L/kg and the AUC(0-t) is 0.926 µM·h. In data set [3], the bioavailability came to 49.7% and the Cmax amounted to 204 nM. The same compound came in with an IC50 against NLRP3 of 0.08 nM.
For the compound `Cc1cc(N[C@@H]2CCCN(C3COC3)C2)nnc1-c1ccc(-c2ccc(F)cc2)cc1O` [Compound 21], the concentration for half-maximal inhibition (IC50) in data set [2] is 10.6 µM; on NLRP3 it was 62.7 nM.
In the case of `Cc1cc(N[C@@H]2CCCN(CC#N)C2)nnc1-c1ccc(C2CC2)cc1O` [Compound 23], in data set [1] (1 mg/kg, dose IV/PO 1/2 mg/kg), the half-life is 74.4 min, the clearance was 6.49 mL/min/kg and the Vd worked out at 0.618 L/kg. In addition, in data set [1] (dose IV/PO 1/2 mg/kg), the AUC(0-t) is 10.4 µM·h, the bioavailability amounted to 79.9% and the Cmax is 3.84 µM. The same compound displayed a concentration for half-maximal inhibition (IC50) in data set [2] of more than 40 µM. At NLRP3, this compound registered an IC50 of 4.7 nM.
With `Cc1cc(N[C@@H]2CCCN(C3COC3)C2)nnc1-c1ccc2c(c1O)CCC2` [Compound 13], the 50% inhibitory concentration (IC50) was 21.1 µM in data set [2] and 1.55 nM at NLRP3.
Regarding `Cc1cc(NC2CN(C)CC(F)(F)C2)nnc1-c1ccc2sccc2c1O` (single isomer, unassigned) [Compound 70b], the IC50 in data set [2] was more than 40 µM; against NLRP3 it was 3.33 nM.
`Cc1cc(N[C@@H]2CCCN(CC#N)C2)nnc1-c1ccc2sccc2c1O` [Compound 53] displayed an IC50 in data set [2] of 17.1 µM. In addition, in data set [3], the half-life was 67.2 min, the clearance came to 10.3 mL/min/kg, the Vd amounted to 0.796 L/kg and the AUC(0-t) came to 4.69 µM·h. Besides, in data set [3], the bioavailability was determined as 49.8% and the Cmax was 1520 nM. Inhibition at NLRP3 was half-maximal at 0.74 nM (IC50).
As to `Cc1cc(NC2CN(C)CC(F)(F)C2)nnc1-c1ccc2sccc2c1O` (single isomer, unassigned) [Compound 70a], the IC50 in data set [2] is 34.2 µM; at NLRP3, 23.4 nM.
Compound `Cc1cc(N[C@@H]2CCCN(CC(F)(F)F)C2)nnc1-c1ccc2sccc2c1O` [Compound 48] yielded a 50% inhibitory concentration (IC50) at 2.5 min in data set [2] (human, CHO cells that express hERG (CHO-hERG)) not below 42.6 µM. The same compound displayed an IC50 against NLRP3 of 2.87 nM.
For the compound `Cc1cc(N[C@H]2CN3CCC2CC3)nnc1-c1ccc2c(c1O)CCC2` [Hydrochloride of compound 7], the IC50 in data set [2] stood at 37.5 µM; against NLRP3 it was 5.72 nM.
In the same order, the values of `Cc1cc(N[C@H]2COC[C@@H]2O)nnc1-c1ccc2sccc2c1O` [Hydrochloride of compound 59] are more than 40 µM and 1.73 nM.
Consider `Cc1cc(N[C@@H]2CCCN(CC#N)C2)nnc1-c1ccc2c(c1O)CCC2` [Compound 12a], for which the IC50 worked out at 31.5 µM in data set [2] and 0.97 nM at NLRP3.
Turning to `Cc1cc(NC[C@@H](C)O)nnc1-c1ccc2sccc2c1O` [Hydrochloride of compound 57], the results for the IC50 (in data set [2]; at NLRP3) were more than 40 µM and 3.37 nM, respectively.
